According to EP4610269A1, “UROKINASE PLASMINOGEN ACTIVATOR SURFACE RECEPTOR (UPAR) LIGANDS FOR DIAGNOSTIC OR THERAPEUTIC USE” (3B Pharmaceuticals GmbH, priority 2024, dated 2025):
pIC50: −log10 of the molar value. Where a SMILES comes first, the peptide text is derived from it. Bridges are numbered along the chain shown (N, C = ends). [ ]: non-standard residue; d: D form. The star is where a group is joined. DOTA = O=C(O)CN1CCN(CC(=O)O)CCN(CC(=O)*)CCN(CC(=O)O)CC1; Pro(cis-4-F) = O=C(O)[C@@H]1C[C@H](F)CN1; Pro(4R-NH2) = N[C@H]1CN[C@H](C(=O)O)C1; Hyp = O=C(O)[C@@H]1C[C@@H](O)CN1; hArg = N=C(N)NCCCC[C@H](N)C(=O)O; 3Pal = N[C@@H](Cc1cccnc1)C(=O)O; Pentanoyl(4-Me) = CC(C)CCC(=O)*; Cit = NC(=O)NCCC[C@H](N)C(=O)O; Propanoyl(3-OEt) = CCOCCC(=O)*; αMeL = CC(C)C[C@](C)(N)C(=O)O; Butoxycarbonyl = CCCCOC(=O)*; NMeK = CN[C@@H](CCCCN)C(=O)O; Nva = CCC[C@H](N)C(=O)O; Pentanoyl = CCCCC(=O)*; Sar = CNCC(=O)O

Tests used:
[1] = biological target: T1, uPAR-expressing HEC-265 human endometrial adenocarcinoma cells (Homo sapiens, UniProt Q03405); assay: Competitive FACS binding assay; conditions: pIC50 category of FACS binding
T1 construct: Cell surface uPAR-expressing HEC-265 human endometrial adenocarcinoma cells; host or cells: HEC-265
T1 sequence (Q03405 23-335): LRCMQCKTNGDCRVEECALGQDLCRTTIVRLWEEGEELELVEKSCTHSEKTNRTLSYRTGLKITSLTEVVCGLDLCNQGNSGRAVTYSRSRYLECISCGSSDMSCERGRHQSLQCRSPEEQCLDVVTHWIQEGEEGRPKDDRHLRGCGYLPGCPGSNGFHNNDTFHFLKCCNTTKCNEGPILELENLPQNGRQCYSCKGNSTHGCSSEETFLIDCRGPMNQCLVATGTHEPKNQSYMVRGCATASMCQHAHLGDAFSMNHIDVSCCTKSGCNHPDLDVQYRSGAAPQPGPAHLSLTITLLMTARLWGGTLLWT
Outline: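 HEC-265 cells incubated 1 h at 4 °C with 10 nM biotinylated uPAR peptide tracer plus increasing test compound, then stained with APC-streptavidin on ice. Median APC fluorescence by flow cytometry; 4PL fit gives pIC50.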

[2] = biological target: T2, human uPAR (uPAR-Fc) (Homo sapiens, UniProt Q03405); assay: Surface plasmon resonance (SPR) assay, single cycle kinetics; assay type: binding; conditions: pKD category for uPAR SPR activity assay; uPAR-Fc on Protein A-Chip, 25°C; read-out: pKD CAT (converted)
T2 construct: comprising amino acids Leu23-Arg303 according to UniProt entry Q03405.1; purchased R&D Systems 10378-UK-100
T2 sequence (Q03405 23-303): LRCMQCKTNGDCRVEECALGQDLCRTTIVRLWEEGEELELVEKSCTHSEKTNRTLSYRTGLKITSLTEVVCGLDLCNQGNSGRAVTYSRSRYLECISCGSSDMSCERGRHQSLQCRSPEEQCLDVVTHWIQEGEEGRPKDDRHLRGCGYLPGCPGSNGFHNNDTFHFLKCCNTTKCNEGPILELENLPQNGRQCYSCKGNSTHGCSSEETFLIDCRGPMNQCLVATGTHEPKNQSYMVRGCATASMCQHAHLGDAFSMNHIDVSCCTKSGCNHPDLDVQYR
Outline: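 uPAR-Fc (Leu23-Arg303 extracellular domains, human IgG1 Fc) captured on Protein A chip to ~2000 RU; single-cycle kinetics at 25°C in HEPES running buffer pH 7.4 with 0.1% DMSO. KD from double-referenced sensorgrams fitted to 1:1 Langmuir model, reported as pKD.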

Structure (SMILES) | pIC50 [1] | Kd [2] [nM]
CCCCC(=O)N[C@H]1CSSC[C@@H](C(N)=O)NC(=O)[C@](C)(CC(C)C)NC(=O)[C@H]([C@@H](C)CC)NC(=O)[C@@H]2C[C@@H](O)CN2C(=O)[C@@H]2CCCN2C(=O)[C@H](Cc2ccccc2)NC(=O)[C@H](Cc2ccc(O)cc2)NC(=O)[C@H](CCC(N)=O)NC(=O)[C@H](CCCNC(=N)N)NC1=O [UPAR-156, Pent-[Cys-Arg-Gln-Tyr-Phe-Pro-Hyp-Ile-Aml-Cys]-NH2] (Pentanoyl-CRQYFP[Hyp]I[αMeL]C-NH2; disulfide 1-10) | 7.50 to 7.90 | 1.58 to 10
CC[C@H](C)[C@@H]1NC(=O)[C@@H](C)NC(=O)[C@@H]2CCCN2C(=O)[C@H](Cc2ccccc2)NC(=O)[C@H](Cc2ccc(O)cc2)NC(=O)[C@H](CCC(N)=O)NC(=O)[C@H](CCCCNC(=O)CN2CCN(CC(=O)O)CCN(CC(=O)O)CCN(CC(=O)O)CC2)NC(=O)[C@@H](NC(=O)CCC(C)C)CSSC[C@@H](C(N)=O)NC(=O)[C@H](CC(C)C)NC1=O [UPAR-157, iHex-[Cys-Lys(DOTA)-Gln-Tyr-Phe-Pro-ala-Ile-Leu-Cys]-NH2] ({Pentanoyl(4-Me)}-CK(DOTA)QYFP[dA]ILC-NH2; disulfide 1-10) | ≥ 8.00 | < 1.58
CC[C@H](C)[C@@H]1NC(=O)[C@@H](C)NC(=O)[C@@H]2CCCN2C(=O)[C@H](Cc2ccccc2)NC(=O)[C@H](C)NC(=O)[C@H](CCC(N)=O)NC(=O)[C@H](CCCNC(N)=O)NC(=O)[C@@H](NC(=O)CCC(C)C)CSSC[C@@H](C(N)=O)NC(=O)[C@H](CC(C)C)NC1=O [UPAR-159, iHex-[Cys-Cit-Gln-Ala-Phe-Pro-ala-Ile-Leu-Cys]-NH2] ({Pentanoyl(4-Me)}-C[Cit]QAFP[dA]ILC-NH2; disulfide 1-10) | ≤ 6.90 | > 100
CC[C@H](C)[C@@H]1NC(=O)[C@@H](C)NC(=O)[C@@H]2CCCN2C(=O)[C@H](Cc2ccccc2)NC(=O)[C@H](Cc2ccc(O)cc2)NC(=O)[C@H](CCCNC(=N)N)NC(=O)[C@H](CCCNC(N)=O)NC(=O)[C@@H](NC(=O)CCC(C)C)CSSC[C@@H](C(N)=O)NC(=O)[C@H](CC(C)C)NC1=O [UPAR-160, iHex-[Cys-Cit-Arg-Tyr-Phe-Pro-ala-Ile-Leu-Cys]-NH2] ({Pentanoyl(4-Me)}-C[Cit]RYFP[dA]ILC-NH2; disulfide 1-10) | ≥ 8.00 | < 1.58
CCCCC(=O)N[C@H]1CSSC[C@@H](C(N)=O)NC(=O)[C@H](CCC)NC(=O)[C@H]([C@@H](C)CC)NC(=O)[C@@H](CC(=O)O)NC(=O)[C@@H]2CCCN2C(=O)[C@H](Cc2ccccc2)NC(=O)[C@H](Cc2ccc(O)cc2)NC(=O)[C@H](CCC(N)=O)NC(=O)[C@H](CCCNC(=N)N)NC1=O [UPAR-161, Pent-[Cys-Arg-Gln-Tyr-Phe-Pro-asp-Ile-Nva-Cys]-NH2] (Pentanoyl-CRQYFP[dD]I[Nva]C-NH2; disulfide 1-10) | ≥ 8.00 | 10 to 100
CC[C@H](C)[C@@H]1NC(=O)[C@@H](C)NC(=O)[C@@H]2CCCN2C(=O)[C@H](Cc2ccccc2)NC(=O)[C@H](Cc2ccc(O)cc2)NC(=O)[C@H](CCCCNC(=O)CN2CCN(CC(=O)O)CCN(CC(=O)O)CCN(CC(=O)O)CC2)NC(=O)[C@H](CCCNC(=N)N)NC(=O)[C@@H](NC(=O)[C@H](CC(C)C)NC(C)=O)CSSC[C@@H](C(N)=O)NC(=O)[C@H](CC(C)C)NC1=O [UPAR-162, Ac-Leu-[Cys-Arg-Lys(DOTA)-Tyr-Phe-Pro-ala-Ile-Leu-Cys]-NH2] (Ac-LCRK(DOTA)YFP[dA]ILC-NH2; disulfide 2-11) | ≥ 8.00 | < 1.58
CC[C@H](C)[C@@H]1NC(=O)[C@@H](C)NC(=O)[C@@H]2C[C@@H](N)CN2C(=O)[C@H](Cc2ccccc2)NC(=O)[C@H](Cc2ccc(O)cc2)NC(=O)[C@H](CCC(N)=O)NC(=O)[C@H](CCCNC(N)=O)NC(=O)[C@@H](NC(=O)CCC(C)C)CSSC[C@@H](C(N)=O)NC(=O)[C@H](CC(C)C)NC1=O [UPAR-163, iHex-[Cys-Cit-Gln-Tyr-Phe-Tap-ala-Ile-Leu-Cys]-NH2] ({Pentanoyl(4-Me)}-C[Cit]QYF[Pro(4R-NH2)][dA]ILC-NH2; disulfide 1-10) | 7.50 to 7.90 | 1.58 to 10
CC(C)CCC(=O)N[C@H]1CSSC[C@@H](C(N)=O)NC(=O)[C@H](CC(C)C)NC(=O)[C@H](C)NC(=O)[C@@H](C)NC(=O)[C@@H]2CCCN2C(=O)[C@H](Cc2ccccc2)NC(=O)[C@H](Cc2ccc(O)cc2)NC(=O)[C@H](CCC(N)=O)NC(=O)[C@H](CCCNC(N)=O)NC1=O [UPAR-164, iHex-[Cys-Cit-Gln-Tyr-Phe-Pro-ala-Ala-Leu-Cys]-NH2] ({Pentanoyl(4-Me)}-C[Cit]QYFP[dA]ALC-NH2; disulfide 1-10) | ≤ 6.90 | > 100
CCCCOC(=O)N[C@H]1CSSC[C@@H](C(N)=O)NC(=O)[C@H](CCC)NC(=O)[C@H]([C@@H](C)CC)NC(=O)[C@@H]2C[C@@H](O)CN2C(=O)[C@@H]2C[C@H](F)CN2C(=O)[C@H](Cc2ccccc2)NC(=O)[C@H](Cc2cccnc2)NC(=O)[C@H](CCCCNC(=O)CN2CCN(CC(=O)O)CCN(CC(=O)O)CCN(CC(=O)O)CC2)NC(=O)[C@H]([C@@H](C)O)NC1=O [UPAR-165, Butoc-[Cys-Thr-Lys(DOTA)-Mpa-Phe-4Cfp-Hyp-Ile-Nva-Cys]-NH2] (Butoxycarbonyl-CTK(DOTA)[3Pal]F[Pro(cis-4-F)][Hyp]I[Nva]C-NH2; disulfide 1-10) | ≥ 8.00 | < 1.58
CC[C@H](C)[C@@H]1NC(=O)[C@@H]2C[C@@H](O)CN2C(=O)[C@@H]2CCCN2C(=O)[C@H](Cc2ccccc2)NC(=O)[C@H](Cc2ccc(O)cc2)NC(=O)[C@H](CCC(N)=O)NC(=O)[C@H](CCCCNC(=N)N)NC(=O)[C@@H](NC(=O)CCC(C)C)CSSC[C@@H](C(N)=O)NC(=O)[C@H](CC(C)C)NC1=O [UPAR-167, iHex-[Cys-Har-Gln-Tyr-Phe-Pro-Hyp-Ile-Leu-Cys]-NH2] ({Pentanoyl(4-Me)}-C[hArg]QYFP[Hyp]ILC-NH2; disulfide 1-10) | ≥ 8.00 | < 1.58
CC[C@H](C)[C@@H]1NC(=O)[C@@H](C)NC(=O)[C@@H]2CCCN2C(=O)[C@H](Cc2ccccc2)NC(=O)[C@H](Cc2ccc(O)cc2)NC(=O)[C@H](CCC(N)=O)NC(=O)[C@H](C)NC(=O)[C@@H](NC(=O)CCC(C)C)CSSC[C@@H](C(N)=O)NC(=O)[C@H](CC(C)C)NC1=O [UPAR-168, iHex-[Cys-Ala-Gln-Tyr-Phe-Pro-ala-Ile-Leu-Cys]-NH2] ({Pentanoyl(4-Me)}-CAQYFP[dA]ILC-NH2; disulfide 1-10) | ≥ 8.00 | < 1.58
CCCCC(=O)N[C@H]1CSSC[C@@H](C(N)=O)NC(=O)[C@H](Cc2ccccc2)NC(=O)[C@H]([C@@H](C)CC)NC(=O)[C@@H]2C[C@@H](O)CN2C(=O)[C@@H]2CCCN2C(=O)[C@H](Cc2ccccc2)NC(=O)[C@H](Cc2ccc(O)cc2)NC(=O)[C@H](CCC(N)=O)NC(=O)[C@H](CCCNC(=N)N)NC1=O [UPAR-171, Pent-[Cys-Arg-Gln-Tyr-Phe-Pro-Hyp-Ile-Phe-Cys]-NH2] (Pentanoyl-CRQYFP[Hyp]IFC-NH2; disulfide 1-10) | 7.50 to 7.90 | 1.58 to 10
CCOCCC(=O)N[C@H]1CSSC[C@@H](C(N)=O)NC(=O)[C@H](CC(C)C)NC(=O)[C@H]([C@@H](C)CC)NC(=O)[C@@H](C)NC(=O)[C@@H]2CCCN2C(=O)[C@H](Cc2ccccc2)NC(=O)[C@H](Cc2ccc(O)cc2)NC(=O)[C@H](CCC(N)=O)NC(=O)[C@H](CCCNC(N)=O)NC1=O [UPAR-172, EtOPr-[Cys-Cit-Gln-Tyr-Phe-Pro-ala-Ile-Leu-Cys]-NH2] ({Propanoyl(3-OEt)}-C[Cit]QYFP[dA]ILC-NH2; disulfide 1-10) | ≥ 8.00 | 1.58 to 10
CCCCC(=O)N[C@H]1CSSC[C@@H](C(N)=O)NC(=O)[C@H](CCC)NC(=O)[C@H]([C@@H](C)CC)NC(=O)[C@H](CCCCN)N(C)C(=O)[C@@H]2CCCN2C(=O)[C@H](Cc2ccccc2)NC(=O)[C@H](Cc2ccc(O)cc2)NC(=O)[C@H](CCCCNC(=O)CN2CCN(CC(=O)O)CCN(CC(=O)O)CCN(CC(=O)O)CC2)NC(=O)[C@H](CCCNC(N)=O)NC1=O [UPAR-173, Pent-[Cys-Cit-Lys(DOTA)-Tyr-Phe-Pro-Nmk-Ile-Nva-Cys]-NH2] (Pentanoyl-C[Cit]K(DOTA)YFP[NMeK]I[Nva]C-NH2; disulfide 1-10) | ≤ 6.90 | > 100
CCCCC(=O)N[C@H]1CSSC[C@@H](C(N)=O)NC(=O)[C@H](CCC)NC(=O)[C@H]([C@@H](C)CC)NC(=O)CN(C)C(=O)[C@@H]2CCCN2C(=O)[C@H](Cc2ccccc2)NC(=O)[C@H](Cc2ccc(O)cc2)NC(=O)[C@H](CCCCNC(=O)CN2CCN(CC(=O)O)CCN(CC(=O)O)CCN(CC(=O)O)CC2)NC(=O)[C@H](CCCNC(N)=O)NC1=O [UPAR-177, Pent-[Cys-Cit-Lys(DOTA)-Tyr-Phe-Pro-Nmg-Ile-Nva-Cys]-NH2] (Pentanoyl-C[Cit]K(DOTA)YFP[Sar]I[Nva]C-NH2; disulfide 1-10) | ≥ 8.00 | 1.58 to 10
